From patent publication US20260250322A1, “NEW PEPTIDES AS SELECTIVE IL-23 RECEPTOR INHIBITORS” (SANOFI, priority 2023, published 2026)
Bridge positions count the residues as written; N and C are the ends. Square brackets hold non-standard residues; d marks the D form. Peptide text beside a SMILES is read from it. 1Nal = N[C@@H](Cc1cccc2ccccc12)C(=O)O; 2Nal = N[C@@H](Cc1ccc2ccccc2c1)C(=O)O; Cit = NC(=O)NCCC[C@H](N)C(=O)O; Orn = NCCC[C@H](N)C(=O)O; Aib = CC(C)(N)C(=O)O

Experiments:
[1] = test system: IL-23 induced STAT3 signaling; assay: Inhibition of IL-23 induced STAT3 signaling in HEK-Blue IL-23 cells (SEAP reporter); assay type: cell-based; conditions: human IL-23 0.25 ng/ml, read-out: Inhibition of IL-23 induced pSTAT3 (IC50 nM)
How it was run: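 HEK-Blue IL-23 cells (10,000/well) preincubated 60 min at 37 °C with serially diluted compound, then stimulated overnight with human IL-23 (0.25 ng/ml final). STAT3-driven SEAP in supernatant read with QUANTI-Blue after 45 min at room temperature, OD 620-655 nm; dose-response fitted.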

[2] = Protease stability in simulated intestinal fluids (FaSSIF); assay type: in vitro ADME; conditions: 37° C.; for FaSSIF 0 (min), remaining percentage of peptide compound: 0 min (set to 100%), 1 μM; for remaining at 1 h, 1 μM / remaining at 2 h, 1 μM / remaining at 4 h, 1 μM: simulated intestinal fluid (FaSSIF), protease stability; for remaining at 1 h, 1 μM: 60 min, read-out: FaSSIF 60 (min), remaining percentage of peptide compound; for remaining at 2 h, 1 μM: 120 min, read-out: FaSSIF 120 (min), remaining percentage of peptide compound; for remaining at 4 h, 1 μM: 240 min, read-out: FaSSIF 240 (min), remaining percentage of peptide compound
Experimental: Studies were carried out in simulated intestinal fluid (SIF) and simulated gastric fluid (SGF) to evaluate gastric stability of the peptide compounds of the disclosure. […]
Similarly, the term “Pancreatin-SIF” refers to a solution of simulated intestinal fluid containing pancreatin whereas “SIF-media” refers to a solution of simulated intestinal fluid without pancreatin. Pancreatin-SIF was prepared by dissolving 1 mg Pancreatin (MP Biomedicals) in 10 mL SIF media concentrate (ProSense). […]
To 76 μL of the Pepsin-SGF buffer, 4 μL of the 20 µM compound stock solution were added and incubated at 37° C. At each timepoint (0, 60, 120 and 240 minutes) the reaction was quenched with addition of 80 μL Ethanol (0.1% HCOOH). The samples were centrifuged for 20 minutes and an aliquot of the supernatant 100 μL were transferred to a LoBind-MTP plate and analyzed by LCMS/MS. The peak area response was calculated at each time point for each test compound. As internal reference, the peak area response of the same test compound at TO was calculated. The percent remaining at each timepoint was calculated based on the peak area response ratio of the test compound at TO. Time 0 was set to 100%, and all later timepoints were calculated relative to time 0.

[3] = molecular target: T1, human IL-23R (Homo sapiens, UniProt Q5VWK5); assay: Human ELISA IL-23/IL-23R binding inhibition; conditions: human IL-23 coated, recombinant human IL-23R-Fc chimera
T1 sequence (Q5VWK5 24-355 limits assumed): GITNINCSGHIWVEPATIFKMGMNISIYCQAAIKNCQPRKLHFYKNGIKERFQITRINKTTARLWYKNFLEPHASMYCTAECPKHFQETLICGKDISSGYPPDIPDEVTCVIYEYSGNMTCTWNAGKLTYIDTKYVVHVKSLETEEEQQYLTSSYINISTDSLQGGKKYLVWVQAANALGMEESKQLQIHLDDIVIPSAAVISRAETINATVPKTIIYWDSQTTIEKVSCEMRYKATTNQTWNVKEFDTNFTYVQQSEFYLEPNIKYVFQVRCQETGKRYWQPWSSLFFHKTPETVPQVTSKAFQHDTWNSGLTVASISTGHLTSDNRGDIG
How it was run: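 Plates coated with human IL-23 at 1 μg/ml overnight at 4° C; serially diluted peptides added with recombinant human IL-23R-Fc at 0.1 μg/ml final, 60 min at RT. Bound receptor detected with anti-human IgG1-HRP and a fluorogenic peroxidase substrate.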

| Structure (SMILES) | IC50 [1] | FaSSIF 0 (min), remaining percentage of peptide compound [2] | remaining at 1 h, 1 μM [2] | remaining at 2 h, 1 μM [2] | remaining at 4 h, 1 μM [2] | IC50 [3] |
| --- | --- | --- | --- | --- | --- | --- |
| COc1ccc(C[C@@H]2NC(=O)[C@H](CCCNC(=N)N)NC(=O)[C@H](CCC(N)=O)NC(=O)[C@H](Cc3c[nH]c4ccccc34)NC(=O)[C@H]([C@@H](C)O)NC(=O)[C@H](CC(N)=O)NC(=O)[C@H](NC(C)=O)CCC(=O)NCCCC[C@@H](C(=O)N[C@@H](CC(N)=O)C(=O)N[C@@H](CC(N)=O)C(N)=O)NC(=O)C(C)(C)NC(=O)[C@H](Cc3cccc4ccccc34)NC2=O)cc1 [compound 11] (Ac-[dE]NTWQRY(Me)[1Nal][Aib]KNN-NH2; lactam 1-10) | 9280 nM | 100% | 4% | 7% | 2% | – |
| COc1ccc(C[C@@H]2NC(=O)[C@H](CCCNC(=N)N)NC(=O)[C@H](CCC(N)=O)NC(=O)[C@H](Cc3c[nH]c4ccccc34)NC(=O)[C@H]([C@@H](C)O)NC(=O)[C@H](CC(N)=O)NC(=O)[C@H](NC(C)=O)CC(=O)NCCC[C@@H](C(=O)N[C@@H](CC(N)=O)C(=O)N[C@@H](CC(N)=O)C(N)=O)NC(=O)C(C)(C)NC(=O)[C@H](Cc3ccc4ccccc4c3)NC2=O)cc1 [compound 13] (Ac-[dD]NTWQRY(Me)[2Nal][Aib][Orn]NN-NH2; lactam 1-10) | 1150 nM | 100% | 2% | 0% | 3% | 0.00624 µM |
| COc1ccc(C[C@@H]2NC(=O)[C@H](CCCNC(=N)N)NC(=O)[C@H](CCC(N)=O)NC(=O)[C@H](Cc3c[nH]c4ccccc34)NC(=O)[C@H]([C@@H](C)O)NC(=O)[C@H](CC(N)=O)NC(=O)[C@H](NC(C)=O)CCCCNC(=O)C[C@@H](C(=O)N[C@@H](CC(N)=O)C(=O)N[C@@H](CC(N)=O)C(N)=O)NC(=O)[C@H](CCCNC(N)=O)NC(=O)[C@H](Cc3cccc4ccccc34)NC2=O)cc1 [compound 18] (Ac-[dK]NTWQRY(Me)[1Nal][Cit]DNN-NH2; lactam 1-10) | 10000 nM | 100% | 8% | – | 11% | 0.0117 µM |
| COc1ccc(C[C@@H]2NC(=O)C(C)(C)NC(=O)[C@H](CCC(N)=O)NC(=O)[C@H](Cc3c[nH]c4ccccc34)NC(=O)[C@H]([C@@H](C)O)NC(=O)[C@H](CC(N)=O)NC(=O)[C@H](NC(C)=O)CCCCNC(=O)C[C@@H](C(=O)N[C@@H](CC(N)=O)C(=O)N[C@@H](CC(N)=O)C(N)=O)NC(=O)C(C)(C)NC(=O)[C@H](Cc3cccc4ccccc34)NC2=O)cc1 [compound 21] (Ac-[dK]NTWQ[Aib]Y(Me)[1Nal][Aib]DNN-NH2; lactam 1-10) | 7500 nM | 100% | 96% | 98% | 95% | 0.0169 µM |
